Experimental data published in ChEMBL document CHEMBL2440076, “New triarylpyrazoles as broad-spectrum anticancer agents: design, synthesis, and biological evaluation” (Eur J Med Chem, 2013).

Tests used:
[1] = tested on: UO-31; assay: Growth inhibition of human UO31 cells assessed as cell growth at 10 uM after 48 hrs by sulforhodamine B assay; type: functional; details: UO-31, 48 h, read-out: Activity
[2] = tested on: PC-3; assay: Growth inhibition of human PC3 cells assessed as cell growth at 10 uM after 48 hrs by sulforhodamine B assay; type: functional; details: PC-3, 48 h, read-out: Activity
[3] = tested on: HT-29; assay: Growth inhibition of human HT-29 cells after 48 hrs by sulforhodamine B assay; type: functional; details: HT-29, 48 h; for CC50: read-out: LC50 (the source's name)
[4] = Growth inhibition of human HCC2998 cells after 48 hrs by sulforhodamine B assay; type: functional; details: HCC 2998, 48 h; for CC50: read-out: LC50 (the source's name)
[5] = tested on: NCI-H23; assay: Growth inhibition of human NCI-H23 cells after 48 hrs by sulforhodamine B assay; type: functional; details: NCI-H23, 48 h
[6] = tested on: HOP-92; assay: Growth inhibition of human HOP92 cells after 48 hrs by sulforhodamine B assay; type: functional, cell-based; details: HOP-92, 48 h
[7] = tested on: SR; assay: Growth inhibition of human SR cells after 48 hrs by sulforhodamine B assay; type: functional; details: for CC50: read-out: LC50 (the source's name)
[8] = tested on: HL-60(TB); assay: Growth inhibition of human HL-60(TB) cells after 48 hrs by sulforhodamine B assay; type: functional; details: HL-60, 48 h; for CC50: read-out: LC50 (the source's name)
[9] = tested on: 786-0; assay: Growth inhibition of human 786-0 cells assessed as cell growth at 10 uM after 48 hrs by sulforhodamine B assay; type: functional; details: 786-0, 48 h, read-out: Activity
[10] = tested on: SK-OV-3; assay: Growth inhibition of human SKOV3 cells assessed as cell growth at 10 uM after 48 hrs by sulforhodamine B assay; type: functional; details: SK-OV-3, 48 h, read-out: Activity
[11] = tested on: OVCAR-8; assay: Growth inhibition of human OVCAR8 cells assessed as cell growth at 10 uM after 48 hrs by sulforhodamine B assay; type: functional; details: OVCAR-8, 48 h, read-out: Activity
[12] = tested on: SK-MEL-2; assay: Growth inhibition of human SK-MEL-2 cells assessed as cell growth at 10 uM after 48 hrs by sulforhodamine B assay; type: functional; details: SK-MEL-2, 48 h, read-out: Activity
[13] = tested on: M14; assay: Growth inhibition of human M14 cells assessed as cell growth at 10 uM after 48 hrs by sulforhodamine B assay; type: functional; details: M14, 48 h, read-out: Activity
[14] = tested on: Malme-3M; assay: Growth inhibition of human MALME-3M cells assessed as cell growth at 10 uM after 48 hrs by sulforhodamine B assay; type: functional; details: read-out: Activity
[15] = tested on: LOX IMVI; assay: Growth inhibition of human LOXIMVI cells assessed as cell growth at 10 uM after 48 hrs by sulforhodamine B assay; type: functional; details: read-out: Activity
[16] = tested on: SNB-19; assay: Growth inhibition of human SNB19 cells assessed as cell growth at 10 uM after 48 hrs by sulforhodamine B assay; type: functional; details: SNB-19, 48 h, read-out: Activity
[17] = tested on: SF-268; assay: Growth inhibition of human SF268 cells assessed as cell growth at 10 uM after 48 hrs by sulforhodamine B assay; type: functional; details: SF-268, 48 h, read-out: Activity
[18] = tested on: HT-29; assay: Growth inhibition of human HT-29 cells assessed as cell growth at 10 uM after 48 hrs by sulforhodamine B assay; type: functional; details: HT-29, 48 h, read-out: Activity
[19] = tested on: HCT-116; assay: Growth inhibition of human HCT116 cells assessed as cell growth at 10 uM after 48 hrs by sulforhodamine B assay; type: functional; details: HCT-116, 48 h, read-out: Activity
[20] = tested on: COLO 205; assay: Growth inhibition of human COLO205 cells assessed as cell growth at 10 uM after 48 hrs by sulforhodamine B assay; type: functional; details: COLO 205, 48 h, read-out: Activity
[21] = tested on: NCI-H460; assay: Growth inhibition of human NCI-H460 cells assessed as cell growth at 10 uM after 48 hrs by sulforhodamine B assay; type: functional; details: NCI-H460, 48 h, read-out: Activity
[22] = tested on: NCI-H23; assay: Growth inhibition of human NCI-H23 cells assessed as cell growth at 10 uM after 48 hrs by sulforhodamine B assay; type: functional; details: NCI-H23, 48 h, read-out: Activity
[23] = tested on: ACHN; assay: Growth inhibition of human ACHN cells after 48 hrs by sulforhodamine B assay; type: functional; details: for CC50: read-out: LC50 (the source's name)
[24] = tested on: 786-0; assay: Growth inhibition of human 786-0 cells after 48 hrs by sulforhodamine B assay; type: functional; details: 786-0, 48 h; for CC50: read-out: LC50 (the source's name)
[25] = tested on: SK-OV-3; assay: Growth inhibition of human SKOV3 cells after 48 hrs by sulforhodamine B assay; type: functional; details: SK-OV-3, 48 h; for CC50: read-out: LC50 (the source's name)
[26] = tested on: OVCAR-3; assay: Growth inhibition of human OVCAR3 cells after 48 hrs by sulforhodamine B assay; type: functional, cell-based; details: OVCAR-3, 48 h; for CC50: read-out: LC50 (the source's name)
[27] = tested on: UACC-62; assay: Growth inhibition of human UACC62 cells after 48 hrs by sulforhodamine B assay; type: functional; details: UACC-62, 48 h
[28] = tested on: SK-MEL-5; assay: Growth inhibition of human SK-MEL-5 cells after 48 hrs by sulforhodamine B assay; type: functional; details: SK-MEL-5, 48 h
[29] = tested on: UACC-257; assay: Growth inhibition of human UACC257 cells after 48 hrs by sulforhodamine B assay; type: functional; details: UACC-257, 48 h; for CC50: read-out: LC50 (the source's name)
[30] = tested on: SK-MEL-28; assay: Growth inhibition of human SK-MEL-28 cells after 48 hrs by sulforhodamine B assay; type: functional; details: SK-MEL-28, 48 h
[31] = tested on: M14; assay: Growth inhibition of human M14 cells after 48 hrs by sulforhodamine B assay; type: functional; details: M14, 48 h
[32] = tested on: LOX IMVI; assay: Growth inhibition of human LOXIMVI cells after 48 hrs by sulforhodamine B assay; type: functional
[33] = tested on: SNB-19; assay: Growth inhibition of human SNB19 cells after 48 hrs by sulforhodamine B assay; type: functional; details: SNB-19, 48 h
[34] = tested on: HOP-62; assay: Growth inhibition of human HOP62 cells assessed as cell growth at 10 uM after 48 hrs by sulforhodamine B assay; type: functional; details: HOP-62, 48 h, read-out: Activity

COc1cc(-c2nn(-c3cccc(NC(=O)c4ccc(Cl)c(C(F)(F)F)c4)c3)cc2-c2ccncc2)ccc1Cl
growth at 10 µM [1]: 37.1% | growth at 10 µM [2]: 18.6% | GI50 [3]: 3.38 µM | TGI [3]: > 32.5 µM | CC50 [3]: > 32.5 µM | GI50 [4]: 7.86 µM | TGI [4]: > 32.5 µM | CC50 [4]: > 32.5 µM | GI50 [5]: 5.39 µM | LC50 [5]: > 32.5 µM | TGI [5]: > 32.5 µM | GI50 [6]: 665 nM | IC50 [6]: 670 nM | LC50 [6]: > 32.5 µM | TGI [6]: 3230 nM | GI50 [7]: 848 nM | TGI [7]: > 32.5 µM | CC50 [7]: > 32.5 µM | GI50 [8]: 5480 nM | TGI [8]: > 32.5 µM | CC50 [8]: > 32.5 µM | growth at 10 µM [9]: 59.5% | growth at 10 µM [10]: 64.3% | growth at 10 µM [11]: 38.9% | growth at 10 µM [12]: 18.9% | growth at 10 µM [13]: 26.2% | growth at 10 µM [14]: 16.8% | growth at 10 µM [15]: 32.2% | growth at 10 µM [16]: 66% | growth at 10 µM [17]: 46.7% | growth at 10 µM [18]: 50.1% | growth at 10 µM [19]: 24% | growth at 10 µM [20]: 69.4% | growth at 10 µM [21]: 25.4% | growth at 10 µM [22]: 58.9% | GI50 [23]: 2730 nM | TGI [23]: > 32.5 µM | CC50 [23]: > 32.5 µM | GI50 [24]: 11 µM | TGI [24]: > 32.5 µM | CC50 [24]: > 32.5 µM | GI50 [25]: 9.29 µM | TGI [25]: > 32.5 µM | CC50 [25]: > 32.5 µM | GI50 [26]: 2420 nM | IC50 [26]: 2420 nM | TGI [26]: 19.8 µM | CC50 [26]: > 32.5 µM | GI50 [27]: 2100 nM | LC50 (50% lethal concentration) [27]: > 32.5 µM | TGI [27]: > 32.5 µM | GI50 [28]: 1380 nM | LC50 (concentration killing 50% of cells) [28]: 31.8 µM | TGI [28]: 6.87 µM | GI50 [29]: 7.13 µM | TGI [29]: > 32.5 µM | CC50 [29]: > 32.5 µM | GI50 [30]: 3080 nM | LC50 [30]: > 32.5 µM | TGI [30]: > 32.5 µM | GI50 [31]: 2790 nM | LC50 (concentration killing 50% of cells) [31]: > 32.5 µM | TGI [31]: > 32.5 µM | GI50 [32]: 1920 nM | LC50 [32]: > 32.5 µM | TGI [32]: > 32.5 µM | GI50 [33]: 8.68 µM | LC50 (concentration killing 50% of cells) [33]: > 32.5 µM | TGI [33]: > 32.5 µM | growth at 10 µM [34]: 53%

O=C(Nc1cccc(-n2cc(-c3ccncc3)c(-c3ccc(Cl)c(O)c3)n2)c1)Nc1ccc(Cl)c(Cl)c1
growth at 10 µM [1]: 21% | growth at 10 µM [2]: 5.43% | GI50 [3]: 4.89 µM | TGI [3]: > 32.5 µM | CC50 [3]: > 32.5 µM | GI50 [4]: 2.89 µM | TGI [4]: 13.9 µM | CC50 [4]: > 32.5 µM | GI50 [5]: 1.22 µM | LC50 [5]: > 32.5 µM | TGI [5]: 29.1 µM | GI50 [6]: 679 nM | IC50 [6]: 680 nM | LC50 [6]: > 32.5 µM | TGI [6]: 1910 nM | GI50 [7]: 1140 nM | TGI [7]: 15 µM | CC50 [7]: > 32.5 µM | GI50 [8]: 515 nM | TGI [8]: > 32.5 µM | CC50 [8]: > 32.5 µM | growth at 10 µM [9]: 30.1% | growth at 10 µM [10]: 18.7% | growth at 10 µM [11]: 11.7% | growth at 10 µM [12]: -25.4% | growth at 10 µM [13]: 17.2% | growth at 10 µM [14]: 10.3% | growth at 10 µM [15]: 21.9% | growth at 10 µM [16]: 30.3% | growth at 10 µM [17]: 29.1% | growth at 10 µM [18]: 45.9% | growth at 10 µM [19]: 11.1% | growth at 10 µM [20]: 30.2% | growth at 10 µM [21]: 6.5% | growth at 10 µM [22]: 13.5% | GI50 [23]: 1040 nM | TGI [23]: > 32.5 µM | CC50 [23]: > 32.5 µM | GI50 [24]: 7.22 µM | TGI [24]: > 32.5 µM | CC50 [24]: > 32.5 µM | GI50 [25]: 1.2 µM | TGI [25]: > 32.5 µM | CC50 [25]: > 32.5 µM | GI50 [26]: 1050 nM | IC50 [26]: 1050 nM | TGI [26]: 3.15 µM | CC50 [26]: > 32.5 µM | GI50 [27]: 1110 nM | LC50 (50% lethal concentration) [27]: 29.2 µM | TGI [27]: 5.21 µM | GI50 [28]: 570 nM | LC50 (concentration killing 50% of cells) [28]: 2.35 µM | TGI [28]: 1.16 µM | GI50 [29]: 0.93 µM | TGI [29]: 3.16 µM | CC50 [29]: > 32.5 µM | GI50 [30]: 1460 nM | LC50 [30]: > 32.5 µM | TGI [30]: 9.85 µM | GI50 [31]: 1180 nM | LC50 (concentration killing 50% of cells) [31]: > 32.5 µM | TGI [31]: 6.97 µM | GI50 [32]: 939 nM | LC50 [32]: 15 µM | TGI [32]: 3.57 µM | GI50 [33]: 1.46 µM | LC50 (concentration killing 50% of cells) [33]: > 32.5 µM | TGI [33]: > 32.5 µM | growth at 10 µM [34]: 34.4%
